Assay results from paper PMC11950852, “Diversity Scale of Library Matters: Impact of mRNA Library Diversity Scales on the Discovery of Macrocyclic Peptides Targeting a Protein by the RaPID System” (ACS Central Science, 2025).
Where a SMILES comes first, the peptide text is derived from it. Bridges are numbered along the chain shown (N, C = ends). [ ]: non-standard residue; d: D form.

Target: Fc-fused MET (His-/hFc-tagged human MET ectodomain) (Homo sapiens, UniProt P08581)
Assay: SPR binding kinetics of selected macrocyclic peptides to Fc-fused MET
Conditions: for Kd / kd / kd (quoted in text) / ka: SPR conditions as E1; for Kd: 1:1 binding model; for kon: pH 7.4, read-out: ka

SMILES	Kd [nM]	kd [s⁻¹]	kd (quoted in text)	kon [M⁻¹ s⁻¹]	ka	fold slower kd compared to 6–1 (ratio of SPR kd values) [fold]	kd (quoted in text) (listed as 8–2)	fold slower kd than other species of the E8 library (other species kd = ∼50 × 10^–3 s^–1) [fold]
CC(C)[C@@H]1NC(=O)[C@H](CO)NC(=O)CNC(=O)[C@H](CO)NC(=O)[C@H](Cc2c[nH]c3ccccc23)NC(=O)[C@H](CO)NC(=O)[C@H](Cc2ccc(O)cc2)NC(=O)[C@H](Cc2ccc(O)cc2)NC(=O)CSC[C@@H](C(=O)NCC(N)=O)NC(=O)[C@H](CO)NC(=O)[C@H](CC(N)=O)NC(=O)[C@H](Cc2c[nH]c3ccccc23)NC(=O)[C@H](CCCCN)NC(=O)[C@H](C(C)C)NC(=O)[C@H](CO)NC(=O)[C@H](CCC(=O)O)NC(=O)[C@H](CO)NC1=O [10-1] ({CH2CO}-YYSWSGSVSESVKWNSCG-NH2; thioether N-17)	10.1	0.00878	~10 × 10^–3 s^–1	871000				
C[C@@H]1NC(=O)CNC(=O)[C@H](Cc2ccc(O)cc2)NC(=O)[C@H](CCC(=O)O)NC(=O)[C@H](CCCCN)NC(=O)[C@H](Cc2c[nH]c3ccccc23)NC(=O)[C@H](CCCNC(=N)N)NC(=O)CNC(=O)[C@H](CC(=O)O)NC(=O)[C@H](Cc2ccccc2)NC(=O)[C@H]([C@@H](C)O)NC(=O)[C@H](Cc2ccc(O)cc2)NC(=O)[C@H](Cc2ccc(O)cc2)NC(=O)[C@H](Cc2c[nH]c3ccccc23)NC(=O)[C@H](Cc2ccc(O)cc2)NC(=O)CSC[C@@H](C(=O)NCC(N)=O)NC(=O)[C@H](C)NC1=O [8-1] ({CH2CO}-YWYYTFDGRWKEYGAACG-NH2; thioether N-17)	31	0.0427	42.7 × 10^–3 s^–1	1.38e+06	13.8 × 10^5 M^–1 s^–1			
CC(C)C[C@@H]1NC(=O)[C@H]([C@@H](C)O)NC(=O)[C@H](CCCCN)NC(=O)[C@H](C)NC(=O)[C@H](Cc2c[nH]c3ccccc23)NC(=O)[C@H](CCCCN)NC(=O)[C@H](C)NC(=O)[C@H](C(C)C)NC(=O)[C@H](CC(N)=O)NC(=O)[C@H]([C@@H](C)O)NC(=O)[C@H](Cc2c[nH]c3ccccc23)NC(=O)[C@H](CC(N)=O)NC(=O)[C@H](Cc2ccc(O)cc2)NC(=O)[C@H](Cc2ccc(O)cc2)NC(=O)[C@H](Cc2ccccc2)NC(=O)[C@H](Cc2ccc(O)cc2)NC(=O)CSC[C@@H](C(=O)NCC(N)=O)NC1=O [6-2] ({CH2CO}-YFYYNWTNVAKWAKTLCG-NH2; thioether N-17)		0.0074	7.4 × 10^–3 s^–1	72500	0.725 × 10^5 M^–1 s^–1	7		
CC(C)C[C@@H]1NC(=O)[C@H](CCCCN)NC(=O)CNC(=O)[C@H](Cc2ccccc2)NC(=O)CNC(=O)[C@H](Cc2ccc(O)cc2)NC(=O)[C@H](C(C)C)NC(=O)[C@H](Cc2c[nH]c3ccccc23)NC(=O)[C@H](Cc2ccc(O)cc2)NC(=O)CSC[C@@H](C(=O)NCC(N)=O)NC(=O)[C@H](Cc2ccccc2)NC(=O)[C@H](C)NC(=O)[C@H](CCCNC(=N)N)NC(=O)[C@H](Cc2c[nH]c3ccccc23)NC(=O)[C@H](CC(=O)O)NC(=O)[C@H](CC(N)=O)NC(=O)[C@H](CC(N)=O)NC1=O [14-1] ({CH2CO}-YWVYGFGKLNNDWRAFCG-NH2; thioether N-17)		0.000739		257000				
CC[C@H](C)[C@@H]1NC(=O)[C@H](Cc2ccc(O)cc2)NC(=O)CSC[C@@H](C(=O)NCC(N)=O)NC(=O)[C@@H]2CCCN2C(=O)[C@H](CCCNC(=N)N)NC(=O)[C@H](C(C)C)NC(=O)[C@H](Cc2ccccc2)NC(=O)[C@H](Cc2c[nH]c3ccccc23)NC(=O)[C@H](CC(=O)O)NC(=O)[C@H](CCCCN)NC(=O)[C@H](CO)NC(=O)[C@H](C)NC(=O)[C@H](Cc2ccc(O)cc2)NC(=O)[C@H](C)NC(=O)[C@H](Cc2ccccc2)NC(=O)[C@H](Cc2c[nH]c3ccccc23)NC(=O)[C@H](CO)NC1=O [12-1] ({CH2CO}-YISWFAYASKDWFVRPCG-NH2; thioether N-17)		0.00254	2.54 × 10^–3 s^–1	79500				
CC(C)[C@@H]1NC(=O)[C@H](CCCCN)NC(=O)[C@H](CC(=O)O)NC(=O)CNC(=O)[C@H](CC(=O)O)NC(=O)[C@H](CCCNC(=N)N)NC(=O)CNC(=O)[C@H](CC(N)=O)NC(=O)[C@H](Cc2c[nH]c3ccccc23)NC(=O)[C@H](Cc2c[nH]cn2)NC(=O)[C@H](Cc2ccc(O)cc2)NC(=O)[C@H](Cc2ccc(O)cc2)NC(=O)CSC[C@@H](C(=O)NCC(N)=O)NC(=O)[C@H](C(C)C)NC(=O)[C@H](C(C)C)NC(=O)[C@H](Cc2c[nH]c3ccccc23)NC(=O)[C@H](CCC(=O)O)NC1=O [8-2] ({CH2CO}-YYHWNGRDGDKVEWVVCG-NH2; thioether N-17)	21.6	0.0103	~10 × 10^–3 s^–1	475000			10.3 × 10^–3 s^–1	5
CC(C)C[C@@H]1NC(=O)[C@H](Cc2ccc(O)cc2)NC(=O)CSC[C@@H](C(=O)NCC(N)=O)NC(=O)[C@H](CC(=O)O)NC(=O)[C@H](C(C)C)NC(=O)[C@H](Cc2ccc(O)cc2)NC(=O)[C@H](C(C)C)NC(=O)[C@H](Cc2c[nH]c3ccccc23)NC(=O)[C@H](CC(=O)O)NC(=O)[C@H](CCCCN)NC(=O)[C@H](CC(N)=O)NC(=O)[C@H](CC(=O)O)NC(=O)[C@H](Cc2ccc(O)cc2)NC(=O)[C@H](CCCCN)NC(=O)[C@H](Cc2c[nH]cn2)NC(=O)[C@H](Cc2c[nH]c3ccccc23)NC(=O)[C@H](CC(C)C)NC1=O [10-5] ({CH2CO}-YLLWHKYDNKDWVYVDCG-NH2; thioether N-17)		0.00694		356000				
CC(C)C[C@@H]1NC(=O)[C@H](Cc2ccc(O)cc2)NC(=O)[C@H](CCC(=O)O)NC(=O)[C@H](CC(=O)O)NC(=O)[C@H](CCCNC(=N)N)NC(=O)[C@H](Cc2ccc(O)cc2)NC(=O)[C@H](Cc2c[nH]c3ccccc23)NC(=O)[C@H](Cc2ccc(O)cc2)NC(=O)[C@H](Cc2ccc(O)cc2)NC(=O)[C@H](Cc2c[nH]c3ccccc23)NC(=O)[C@H](Cc2c[nH]c3ccccc23)NC(=O)[C@H](Cc2ccc(O)cc2)NC(=O)CSC[C@@H](C(=O)NCC(N)=O)NC(=O)[C@H](CCCNC(=N)N)NC(=O)[C@H]([C@@H](C)O)NC(=O)[C@H](CCCNC(=N)N)NC(=O)[C@H](Cc2c[nH]c3ccccc23)NC1=O [10-6] ({CH2CO}-YWWYYWYRDEYLWRTRCG-NH2; thioether N-17)		0.00489		22300				
CC(C)C[C@@H]1NC(=O)[C@H](Cc2ccc(O)cc2)NC(=O)[C@H](Cc2c[nH]c3ccccc23)NC(=O)[C@H](CO)NC(=O)[C@H](Cc2ccc(O)cc2)NC(=O)CSC[C@@H](C(=O)NCC(N)=O)NC(=O)[C@H](Cc2ccccc2)NC(=O)[C@H](CCC(=O)O)NC(=O)[C@H](Cc2ccccc2)NC(=O)[C@H](CCCCN)NC(=O)[C@H](CCCCN)NC(=O)[C@H](Cc2c[nH]c3ccccc23)NC(=O)[C@H](CCC(N)=O)NC(=O)[C@H](C)NC(=O)[C@H](CCC(N)=O)NC(=O)[C@H](Cc2c[nH]c3ccccc23)NC(=O)[C@H](CC(N)=O)NC1=O [6-1] ({CH2CO}-YSWYLNWQAQWKKFEFCG-NH2; thioether N-17)	212	0.0518	51.8 × 10^–3 s^–1	244000	2.44 × 10^5 M^–1 s^–1			
C[C@@H]1NC(=O)[C@H](C)NC(=O)[C@H](CC(=O)O)NC(=O)[C@H](Cc2ccc(O)cc2)NC(=O)[C@H](CCC(=O)O)NC(=O)[C@H](CCC(=O)O)NC(=O)[C@H](Cc2c[nH]c3ccccc23)NC(=O)[C@H](CCCNC(=N)N)NC(=O)CNC(=O)[C@H](CC(=O)O)NC(=O)[C@H](Cc2ccccc2)NC(=O)[C@H]([C@@H](C)O)NC(=O)[C@H](Cc2ccc(O)cc2)NC(=O)[C@H](Cc2ccc(O)cc2)NC(=O)[C@H](Cc2c[nH]c3ccccc23)NC(=O)[C@H](Cc2ccc(O)cc2)NC(=O)CSC[C@@H](C(=O)NCC(N)=O)NC1=O [8-3] ({CH2CO}-YWYYTFDGRWEEYDAACG-NH2; thioether N-17)		0.0464	46.4 × 10^–3 s^–1	233000	2.33 × 10^5 M^–1 s^–1			
CC(C)C[C@@H]1NC(=O)[C@H](CO)NC(=O)[C@H](Cc2c[nH]c3ccccc23)NC(=O)[C@H](CC(N)=O)NC(=O)[C@H](CCCCN)NC(=O)[C@H](CO)NC(=O)[C@H](CC(=O)O)NC(=O)[C@H](Cc2ccccc2)NC(=O)[C@H](CCC(=O)O)NC(=O)[C@H](CO)NC(=O)[C@H](Cc2c[nH]c3ccccc23)NC(=O)[C@H](CO)NC(=O)[C@H](CC(C)C)NC(=O)[C@H](Cc2ccc(O)cc2)NC(=O)CSC[C@@H](C(=O)NCC(N)=O)NC(=O)[C@H](Cc2ccc(O)cc2)NC(=O)[C@H](C)NC1=O [14-3] ({CH2CO}-YLSWSEFDSKNWSLAYCG-NH2; thioether N-17)		0.00297		84900				
CC(C)[C@@H]1NC(=O)[C@H](CCC(=O)O)NC(=O)[C@H](Cc2c[nH]cn2)NC(=O)[C@H]([C@@H](C)O)NC(=O)[C@H](CCCNC(=N)N)NC(=O)[C@H](CCCNC(=N)N)NC(=O)[C@H](CC(N)=O)NC(=O)[C@H](Cc2ccccc2)NC(=O)[C@H](CCC(N)=O)NC(=O)[C@H](CCCNC(=N)N)NC(=O)[C@@H](Cc2ccc(O)cc2)NC(=O)CSC[C@@H](C(=O)NCC(N)=O)NC(=O)[C@H](CC(=O)O)NC(=O)[C@H](CCCNC(=N)N)NC(=O)[C@H](CC(N)=O)NC(=O)[C@H](Cc2c[nH]c3ccccc23)NC1=O [aMD4, reference compound] ({CH2CO}-[dY]RQFNRRTHEVWNRDCG-NH2; thioether N-16)	3.67	0.00676		1.84e+06				
CC(C)[C@@H]1NC(=O)[C@H](CC(N)=O)NC(=O)CNC(=O)[C@H](CO)NC(=O)[C@H](Cc2c[nH]c3ccccc23)NC(=O)[C@H](CO)NC(=O)[C@H](Cc2ccc(O)cc2)NC(=O)[C@H](Cc2ccc(O)cc2)NC(=O)CSC[C@@H](C(=O)NCC(N)=O)NC(=O)[C@H](CO)NC(=O)[C@H](CC(N)=O)NC(=O)[C@H](Cc2c[nH]c3ccccc23)NC(=O)[C@H](CCCCN)NC(=O)[C@H](C(C)C)NC(=O)[C@H](CO)NC(=O)[C@H](CCC(=O)O)NC(=O)[C@H](CO)NC1=O [12-2] ({CH2CO}-YYSWSGNVSESVKWNSCG-NH2; thioether N-17)		0.00413		476000				
